Where two headings read alike, the source gives them in different places.
Key:
HRM-2 mice = test: In vivo efficacy: skin melanin content after UVB irradiation, different administration routes (Example 4A)
Source text: The experiment tested a total of 20 mice using conventional diets in the adaptation period, the induction period, and the test period. After 7 days of adaptation, the mice were randomly divided into a control group and a UVB-c group according to body weight and body weight changes, so that no statistical difference in average body weight and body weight changes were noticeable among the groups. The UVB-c group was subjected to 150 mJ/cm^2/day of UVB irradiation with a frequency of irradiating the back of the mice three times a week.
Injection frequency was once a week, three times in total, with an average injection area of 6 cm^2 skin each time. The IM01—Topical group and the color cream group were administered by smearing once a day for a total of 21 days. […] During the treatment period, the backs of the mice were irradiated with 150 mJ/cm^2/day of UVB three times a week until sacrificed. It should be noted that the timing of UVB exposure and drug administration were staggered.
After sacrificing the mice on day 22, the skin of treatment area was collected and subjected to heat extraction with 0.4 mL NaOH for 1 hour. […] The experimental data were expressed as mean±standard deviation (n=3-5), using Student's t-test analysis, #p<0.05, ##p<0.01 compared with control group; *p<0.05, **p<0.01 compared with UVB-c group.

UVB-irradiated mice skin = test: In vivo efficacy: skin melanin after UVB irradiation, intradermal injection or topical administration (Example 4B/4C); settings: for Melanin Mean ± SD (UVB group = 100.0): treatment period 3 weeks
Source text: The IM01 formulation was investigated for in vivo efficacy via intradermal injection, either twice a week (IM01-ID/L) or once a day (IM01-ID/H). [table] The IM01 formulation was investigated for in vivo efficacy via topical administration (IM01-T), following the study design provided in Table 16 below. [table]

B16-F10 cells [1] = test: In vitro efficacy comparison: melanin content, α-MSH 0.5 h then test article 30 h (Example 5); type: cell-based, mouse; settings: for Melanin content (%) Mean: α-MSH 0.5 h then TA 30 h
Experimental: B16-F10 cells were seeded in a 96-well plate. Except the vehicle group, cells of the other groups were cultured in the presence of α-MSH for 0.5 hours first. The compositions for examination were then added to the culture medium and the cells were further cultured for 30 hours. The rest of the experimental conditions and procedures were similar to those described in Example 3. Afterwards, the cells were collected to evaluate the effect of 4-[(E)-2-(3,5-dihydroxyphenyl)ethenyl]benzene-1,3-diol compositions (IM01 Group) and Arbutin and 5-[(E)-2-(4-hydroxyphenyl)ethenyl]benzene-1,3-diol (IM00 Group) compositions on reducing melanin levels. The experimental design is summarized in Table 18 and results shown in both Table 18 and FIG. 5.

B16-F10 cells [2] = test: In vitro melanin content versus arbutin and hydroquinone (Example 6); type: cell-based, mouse
Experimental: Except the vehicle group, cells of the other groups were cultured with α-MSH for 24 hours first. The compositions for investigation (see Tables 19 and 20) were then added to the culture medium and the cells were further cultured for 24 hours. The rest of the experimental operation process was similar to that described in Example 3. […] [table] [table]

B16-F10 cell line [3] = test: In vitro whitening efficacy: melanin content (Example 7); type: cell-based, mouse
Source text: (§1) Table 23 below lists the study design for evaluating EC50 values of IM01, which contains 4-[(E)-2-(3,5-dihydroxyphenyl)ethenyl]benzene-1,3-diol.
(§2) Table 25 below lists the study design for evaluating EC50 values of IM01, which contains 4-[(E)-2-(3,5-dihydroxyphenyl)ethenyl]benzene-1,3-diol.

B16-F10 cell line [4] = type: cell-based, mouse; settings: for Relative cell viability (%): mouse
Source text: as §1, §2

[5] = IM01-ID/H: ID, 23 mg/mL, once a day
[6] = IM01-ID/L: ID, 23 mg/mL, twice a week
[7] = IM01-T: topical, 45 mg/mL, once a day

## Oc1cc(O)cc(/C=C/c2ccc(O)cc2O)c1 [IM01, 4-[(E)-2-(3,5-dihydroxyphenyl)ethenyl]benzene-1,3-diol]
HRM-2 mice; IM01-ID group and IM01-Topical group, intradermal injection or smearing
  Skin color compared with UVB-c group: whiter and brighter than that of the UVB-c group
HRM-2 mice; IM01-ID group, intradermal, p<0.01
  Melanin level lower than the UVB-c group by: 33.6%
HRM-2 mice; IM01-ID: intradermal, 20 mg/mL, 0.5 mg/cm^2, once a week
  Percentage change of melanin Mean ± SD (% of UVB-c): −33.6 ± 6.0 % of UVB-c
HRM-2 mice; IM01-ID: intradermal, 20 mg/mL, 0.5 mg/cm^2, once a week, three times, skin collected day 22
  Melanin Content Mean ± SD (% of UVB-c): 66.4 ± 6.0 % of UVB-c
HRM-2 mice; IM01-Topical group, p<0.05
  Melanin level lower than the UVB-c group by: 30.6%
HRM-2 mice; IM01-Topical: 20 mg/mL, 0.4-0.5 mg/cm^2, once a day
  Percentage change of melanin Mean ± SD (% of UVB-c): −30.6 ± 7.6 % of UVB-c
HRM-2 mice; IM01-Topical: 20 mg/mL, 0.4-0.5 mg/cm^2, once a day for 21 days, day 22
  Melanin Content Mean ± SD (% of UVB-c): 69.4 ± 7.6 % of UVB-c
UVB-irradiated mice skin; [5]
  Reduction of melanin production: 23.1%
  Melanin Mean ± SD (UVB group = 100.0): 76.9 ± 12.7
UVB-irradiated mice skin; [6]
  Reduction of melanin production: 13.9%
  Melanin Mean ± SD (UVB group = 100.0): 86.1 ± 14.5
UVB-irradiated mice skin; [7]
  Reduction of melanin production: 21.4%
  Melanin Mean ± SD (UVB group = 100.0): 79.6 ± 12.5
B16-F10 cells [1]; TA 89.19 μM (IM01-20)
  Melanin content (%) Mean: 67.4%
B16-F10 cells [1]; TA 178.38 μM (IM01-40)
  Melanin content (%) Mean: 43.5%
B16-F10 cells [1]; Table 18 concentrations
  In vitro effect in reducing melanin relative to 5-[(E)-2-(4-hydroxyphenyl)ethenyl]benzene-1,3-diol and arbutin: better in vitro effects in reducing melanin
B16-F10 cells [2]; 120 μM
  Effect in reducing melanin compared with Arbutin (450 μM or 900 μM) and hydroquinone (120 μM): better than that of the whitening agent Arbutin
  Melanin content compared with vehicle group (no α-MSH induction): even lower than that of the vehicle group
B16-F10 cells [2]; TA 30 μM, α-MSH 24 hr + TA 24 hr, Table 22 experiment
  Melanin content (%) Mean ± SD: 84.6 ± 3.6%
B16-F10 cells [2]; TA 60 μM, Table 22 experiment
  Melanin content (%) Mean ± SD: 52.8 ± 3.8%
B16-F10 cells [2]; TA 60 μM, α-MSH 24 hr + TA 24 hr, Table 21 experiment
  Melanin content (%) Mean ± SD: 47.6 ± 3.4%
B16-F10 cells [2]; TA 120 μM, Table 21 experiment
  Melanin content (%) Mean ± SD: 26.2 ± 2.4%
B16-F10 cells [2]; TA 120 μM, Table 22 experiment
  Melanin content (%) Mean ± SD: 33.9 ± 1.4%
B16-F10 cells [2]; TA 180 μM, Table 22 experiment
  Melanin content (%) Mean ± SD: 11.7 ± 2.3%
B16-F10 cell line [3]; Mus musculus, B16-F10, α-MSH 24 hr + TA 24 hr, 4-256 μM, read-out: EC50 value (reduction of melanin levels induced by α-MSH)
  EC50: ~41.2 µM
B16-F10 cell line [3]; TA 4 μM, α-MSH 24 hr + TA 24 hr, Table 24
  Melanin content (%): 90.2 ± 6.1%
B16-F10 cell line [3]; TA 8 μM, Table 24
  Melanin content (%): 83.2 ± 6.9%
B16-F10 cell line [3]; TA 16 μM, Table 24
  Melanin content (%): 81.8 ± 4.5%
B16-F10 cell line [3]; TA 32 μM, Table 24
  Melanin content (%): 67.7 ± 7.1%
B16-F10 cell line [3]; TA 60 μM (/L of IM01 and HQ), HQ vehicle DDW, Table 26
  Melanin content (%): 51.7 ± 2.6%
B16-F10 cell line [3]; TA 64 μM, Table 24
  Melanin content (%): 43.0 ± 4.3%
B16-F10 cell line [3]; TA 120 μM (/H of IM01 and HQ), HQ vehicle DDW, Table 26
  Melanin content (%): 37.7 ± 0.4%
B16-F10 cell line [3]; TA 128 μM, Table 24
  Melanin content (%): 36.1 ± 2.9%
B16-F10 cell line [3]; TA 181 μM, Table 24
  Melanin content (%): 34.8 ±3.5%
B16-F10 cell line [3]; TA 256 μM, Table 24
  Melanin content (%): 25.9 ± 1.5%
B16-F10 cell line [3]; Table 25 concentrations, FIG. 7C
  Melanin inhibition activity compared with arbutin: much greater than arbutin
B16-F10 cell line [4]
  Cytotoxicity: low cytotoxicity
B16-F10 cell line [4]; 8 μM
  Relative cell viability (%): 98.4 ± 2.0%
B16-F10 cell line [4]; 16 μM
  Relative cell viability (%): 96.7 ± 2.4%
B16-F10 cell line [4]; 32 μM
  Relative cell viability (%): 98.7 ± 2.2%
B16-F10 cell line [4]; 60 μM
  Relative cell viability (%): 88.5 ± 1.4%
B16-F10 cell line [4]; 64 μM
  Relative cell viability (%): 93.0 ± 1.0%
B16-F10 cell line [4]; 120 μM
  Relative cell viability (%): 84.9 ± 0.4%
B16-F10 cell line [4]; 128 μM
  Relative cell viability (%): 89.8 ± 3.7%
B16-F10 cell line [4]; 181 μM
  Relative cell viability (%): 79.9 ± 5.6%
B16-F10 cell line [4]; 256 μM
  Relative cell viability (%): 74.6 ± 7.0%

From US20250017874A1, “PHARMACEUTICAL COMPOSITIONS FOR USE IN REDUCING HYPERPIGMENTATION” (Caliway Biopharmaceuticals Co., Ltd., priority 2023, published 2025)
